ChEMBL document CHEMBL1909046, “DrugMatrix in vitro pharmacology data”

Columns and labels:
[1] = target: C-C chemokine receptor type 5 (Homo sapiens, UniProt P51681); type: cell membranes, Membrane; details: hek293; further: in other assays of this panel Not Active means under 50% inhibition at 10 µM
[2] = target: T1, Muscarinic acetylcholine receptor M2 (Homo sapiens, UniProt P08172); type: cell membranes, CHO-K1, Membrane; details: cho-k1; further: in other assays of this panel Not Active means under 50% inhibition at 10 µM
T1 sequence (P08172 whole entry): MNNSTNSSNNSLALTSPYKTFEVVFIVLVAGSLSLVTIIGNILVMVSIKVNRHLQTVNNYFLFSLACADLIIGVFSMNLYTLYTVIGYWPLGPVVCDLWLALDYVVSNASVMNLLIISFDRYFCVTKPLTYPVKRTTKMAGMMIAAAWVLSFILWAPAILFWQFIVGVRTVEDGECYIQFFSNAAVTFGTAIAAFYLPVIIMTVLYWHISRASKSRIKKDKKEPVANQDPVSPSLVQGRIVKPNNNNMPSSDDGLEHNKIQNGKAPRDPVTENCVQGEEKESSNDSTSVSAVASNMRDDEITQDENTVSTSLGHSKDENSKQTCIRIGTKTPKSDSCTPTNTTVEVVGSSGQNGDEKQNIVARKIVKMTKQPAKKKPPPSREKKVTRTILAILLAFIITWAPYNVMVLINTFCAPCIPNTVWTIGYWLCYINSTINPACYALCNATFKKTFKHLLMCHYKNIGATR

[3] = target: Cytochrome P450 2C9 (Homo sapiens, UniProt P11712); details: bti-tn-5b1-4; further: in other assays of this panel Not Active means under 50% inhibition at 10 µM
[4] = target: T2, 5-hydroxytryptamine receptor 2C (Homo sapiens, UniProt P28335); test: DRUGMATRIX: Serotonin (5-Hydroxytryptamine) 5-HT2C radioligand binding (ligand: [3H] Mesulergine); type: cell membranes, CHO-K1, Membrane; details: cho-k1; Not Active = under 50% inhibition at 10 µM
T2 sequence (P28335 whole entry): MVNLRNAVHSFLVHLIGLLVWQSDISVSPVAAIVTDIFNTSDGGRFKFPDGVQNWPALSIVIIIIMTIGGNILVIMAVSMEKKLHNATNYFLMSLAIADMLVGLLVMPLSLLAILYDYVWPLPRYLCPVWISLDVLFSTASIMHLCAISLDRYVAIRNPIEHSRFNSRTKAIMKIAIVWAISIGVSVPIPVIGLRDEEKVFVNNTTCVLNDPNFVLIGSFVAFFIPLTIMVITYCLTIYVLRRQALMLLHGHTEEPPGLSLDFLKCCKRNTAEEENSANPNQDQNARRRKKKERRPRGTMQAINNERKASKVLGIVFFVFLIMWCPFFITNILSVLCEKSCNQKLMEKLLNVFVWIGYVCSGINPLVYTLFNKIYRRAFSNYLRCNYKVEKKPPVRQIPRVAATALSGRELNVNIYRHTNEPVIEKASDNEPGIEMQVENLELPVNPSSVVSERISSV

[5] = DRUGMATRIX: Purinergic P2X radioligand binding (ligand: [3H] alpha, beta-Methylene-ATP); type: cell membranes, Oryctolagus cuniculus, New Zealand albino, Urinary bladder, Membrane; details: Not Active = under 50% inhibition at 10 µM
[6] = target: Beta-3 adrenergic receptor (Homo sapiens, UniProt P13945); test: DRUGMATRIX: Adrenergic beta3 radioligand binding (ligand: [125I] Cyanopindolol); type: cell membranes, HEK293, Membrane; details: hek293; Not Active = under 50% inhibition at 10 µM
[7] = target: T3, Amine oxidase [flavin-containing] A (Homo sapiens, UniProt P21397); test: DRUGMATRIX: Monoamine Oxidase MAO-A enzyme inhibition (substrate: Kynuramine); set-up: species or system BTI-TN-5B1-4; details: bti-tn-5b1-4; Not Active = under 50% inhibition at 10 µM
T3 sequence (P21397 whole entry): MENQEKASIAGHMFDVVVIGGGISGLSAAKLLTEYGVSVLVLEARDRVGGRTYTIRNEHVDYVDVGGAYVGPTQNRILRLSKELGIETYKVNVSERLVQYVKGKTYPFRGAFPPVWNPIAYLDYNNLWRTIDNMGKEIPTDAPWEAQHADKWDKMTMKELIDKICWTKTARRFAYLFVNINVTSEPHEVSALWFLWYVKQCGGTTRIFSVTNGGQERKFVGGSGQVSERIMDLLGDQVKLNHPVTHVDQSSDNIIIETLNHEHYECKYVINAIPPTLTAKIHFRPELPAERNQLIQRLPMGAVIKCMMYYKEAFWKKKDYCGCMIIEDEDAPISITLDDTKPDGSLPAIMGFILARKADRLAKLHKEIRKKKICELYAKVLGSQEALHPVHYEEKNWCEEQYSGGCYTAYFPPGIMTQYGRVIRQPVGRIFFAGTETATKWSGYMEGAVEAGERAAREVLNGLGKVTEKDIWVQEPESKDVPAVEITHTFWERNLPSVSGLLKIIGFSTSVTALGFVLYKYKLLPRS

C-C chemokine receptor type 5, sequence (P51681 whole entry): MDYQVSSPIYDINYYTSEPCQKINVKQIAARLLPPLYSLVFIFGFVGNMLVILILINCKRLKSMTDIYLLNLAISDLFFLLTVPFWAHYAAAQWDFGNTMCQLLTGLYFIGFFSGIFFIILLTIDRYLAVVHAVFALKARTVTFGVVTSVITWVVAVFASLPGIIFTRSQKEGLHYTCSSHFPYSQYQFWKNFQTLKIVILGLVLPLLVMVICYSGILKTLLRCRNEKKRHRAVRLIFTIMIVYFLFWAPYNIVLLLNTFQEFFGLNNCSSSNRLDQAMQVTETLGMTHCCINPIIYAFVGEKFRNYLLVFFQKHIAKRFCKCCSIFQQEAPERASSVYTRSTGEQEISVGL
Cytochrome P450 2C9, sequence (P11712 whole entry): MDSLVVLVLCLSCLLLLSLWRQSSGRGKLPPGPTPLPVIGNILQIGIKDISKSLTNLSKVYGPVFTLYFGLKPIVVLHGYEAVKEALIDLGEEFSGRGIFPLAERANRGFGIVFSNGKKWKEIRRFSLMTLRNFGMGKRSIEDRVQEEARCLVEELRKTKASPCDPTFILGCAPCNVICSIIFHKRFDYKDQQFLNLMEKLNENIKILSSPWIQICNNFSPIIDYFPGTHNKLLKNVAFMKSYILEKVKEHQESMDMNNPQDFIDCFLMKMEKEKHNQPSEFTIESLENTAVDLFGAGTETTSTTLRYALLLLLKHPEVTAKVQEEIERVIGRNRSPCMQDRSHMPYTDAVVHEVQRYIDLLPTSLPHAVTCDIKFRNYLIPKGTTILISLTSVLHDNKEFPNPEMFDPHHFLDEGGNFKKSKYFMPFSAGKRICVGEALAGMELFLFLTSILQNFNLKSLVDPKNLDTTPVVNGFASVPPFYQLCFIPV
Beta-3 adrenergic receptor, sequence (P13945 whole entry): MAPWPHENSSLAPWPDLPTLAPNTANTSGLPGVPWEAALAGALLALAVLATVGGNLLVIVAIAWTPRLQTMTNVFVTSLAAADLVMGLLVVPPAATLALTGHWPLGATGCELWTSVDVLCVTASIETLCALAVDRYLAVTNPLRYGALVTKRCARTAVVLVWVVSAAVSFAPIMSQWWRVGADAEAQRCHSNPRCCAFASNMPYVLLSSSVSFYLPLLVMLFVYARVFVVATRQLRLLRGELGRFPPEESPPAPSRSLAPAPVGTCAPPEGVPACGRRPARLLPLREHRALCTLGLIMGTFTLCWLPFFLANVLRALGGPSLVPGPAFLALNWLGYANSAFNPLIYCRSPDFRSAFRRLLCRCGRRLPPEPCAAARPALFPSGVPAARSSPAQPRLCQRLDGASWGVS

Cc1c(C)c2c(c(C)c1O)CC[C@@](C)(CCC[C@H](C)CCC[C@H](C)CCCC(C)C)O2 [ALPHA-TOCOPHEROL]
Not Active: IC50 [1] | IC50 [2] | IC50 [3] | Ki [3] | IC50 [4] | IC50 [5] | Ki [5] | IC50 [6] | IC50 [7]

NCCCCCC(=O)O [AMINOCAPROIC ACID]
Not Active: IC50 [1] | IC50 [2] | IC50 [3] | Ki [3] | IC50 [4] | IC50 [5] | Ki [5] | IC50 [6] | IC50 [7]

CCC1(c2ccc(N)cc2)CCC(=O)NC1=O (centres undefined) [AMINOGLUTETHIMIDE]
Not Active: IC50 [1] | IC50 [2] | IC50 [3] | Ki [3] | IC50 [4] | IC50 [5] | Ki [5] | IC50 [6] | IC50 [7]

Cc1ccc(/N=C/N(C)/C=N/c2ccc(C)cc2C)c(C)c1 [AMITRAZ]
Not Active: IC50 [1] | IC50 [2] | IC50 [3] | Ki [3] | IC50 [4] | IC50 [5] | Ki [5] | IC50 [6] | IC50 [7]

CCOC(=O)C1=C(COCCN)NC(C)=C(C(=O)OC)C1c1ccccc1Cl (centres undefined) [AMLODIPINE]
Not Active: IC50 [1] | IC50 [2] | IC50 [3] | Ki [3] | IC50 [4] | IC50 [5] | Ki [5] | IC50 [6] | IC50 [7]

COc1ccc(C[C@H]2NC[C@H](O)[C@H]2OC(C)=O)cc1 [ANISOMYCIN]
Not Active: IC50 [1] | Ki [1] | IC50 [2] | Ki [2] | IC50 [3] | Ki [3] | IC50 [4] | Ki [4] | IC50 [5] | Ki [5] | IC50 [6] | Ki [6] | IC50 [7] | Ki [7]

Nc1ncn([C@@H]2O[C@H](CO)[C@@H](O)[C@H]2O)c(=O)n1 [AZACITIDINE]
Not Active: IC50 [1] | IC50 [2] | IC50 [3] | Ki [3] | IC50 [4] | IC50 [5] | Ki [5] | IC50 [6] | IC50 [7]

CN(C)C(=O)Oc1cc(OC(=O)N(C)C)cc(C(O)CNC(C)(C)C)c1 (centres undefined) [BAMBUTEROL]
Not Active: IC50 [1] | IC50 [2] | IC50 [3] | Ki [3] | IC50 [4] | IC50 [5] | Ki [5] | IC50 [6] | IC50 [7]

c1ccc2c(c1)c1cccc3ccc4cccc2c4c31 [BENZO[E]PYRENE]
Not Active: IC50 [1] | IC50 [2] | IC50 [3] | Ki [3] | IC50 [4] | IC50 [5] | Ki [5] | IC50 [6] | IC50 [7]

CNCCc1ccccn1 [BETAHISTINE]
Not Active: IC50 [1] | IC50 [2] | IC50 [3] | Ki [3] | IC50 [4] | IC50 [5] | Ki [5] | IC50 [6] | IC50 [7]

CC(C)C(Br)C(=O)NC(N)=O (centres undefined) [BROMISOVALUM]
Not Active: IC50 [1] | IC50 [2] | IC50 [3] | Ki [3] | IC50 [4] | IC50 [5] | Ki [5] | IC50 [6] | IC50 [7]
